Source: patent US11434490B2, “Fluorogen-binding RNA aptamers” (CENTRE NATIONAL DE LA RECHERCHE SCIENTIFIQUE, priority 2017, dated 2022)
“Also recorded” adds a separate entry of the source.

Legend:
[1] = Salt dependence of Mango/TO1-Biotin fluorescence: K+ titration; assay type: binding; conditions: 25 nM RNA, 50 nM TO1-Biotin, 10 mM Tris pH 7.2
Experimental: (§1) FIG. 10|Salt dependence of new Mango variants. Dependence of fluorescence of each Mango for (a) K^+, (b) Na^+ in place of K^+, and (c) Mg^2+ ions in a buffer containing 140 mM K^+. […] 10 mM Tris buffer (pH 7.2) was used in place of phosphate of the WB buffer to avoid monovalent counter ions. Color-coding is as follows: Black—Mango I, Blue—Mango II, Green—Mango III, Orange—Mango IV. Hill coefficients are fitted to dark points. Points in lighter shade have been excluded from the fit. Error bars are standard deviations of three replicates.

[2] = Salt dependence of Mango/TO1-Biotin fluorescence: Na+ in place of K+; assay type: binding
Experimental: as §1

[3] = Salt dependence of Mango/TO1-Biotin fluorescence: Mg2+ titration; conditions: in the presence of potassium; Mg2+ 256 mM
Experimental: as §1

[4] = Brightness and photophysics of Mango fluorophore complexes; assay type: physicochemical
From the text: FIG. 2|RNA Mango I, II, III and IV core sequences and their properties. (a) Color coded alignment of RNA Mango I, II, III and IV. G residues in yellow are protected from DMS cleavage (data from panel d) when folded in the presence of fluorophore. Quadruplex stacks and their associated propeller sequences are numbered 1 through 4. The GAAA isolation motif of Mango I, together with two adenines essential for binding, are shown in green and red respectively. Purple shading represents a flanking stem region common for all four Mango aptamers. Schematic: A tertiary structure schematic of Mango I, showing tier 1, 2 and 3 of its quadruplex structure (T1, T2 and T3) and color-coded as in (a). […] Bottom: Top view of the Mango I core (PBD ID: 5V3F), showing the T3 tier of the quadruplex and relevant propeller residues, color coding matches the schematic and panel a. […] KD values are shown next to each titration. (c) Same as for panel b but using 20 nM TO3-Biotin. Data for panels b and c have been normalized such that Mango I has a maximum fluorescence of 1. Error bars are standard deviation of three replicates. (d) DMS chemical protection patterns for the four Mango aptamers. 3′ end-labelled RNA (terminal ^32pCp shown as a black asterisk) was subjected to DMS chemical modification followed by reduction by NaBH4 and aniline cleavage as described in the methods. […] Legend: T1—denatured T1 ladder; OH—partial alkaline hydrolysis ladder; (−) DMS—denatured reaction with ddH2O added in place of DMS; 80° C.
FIG. 13|Photophysics: excitation/emission. (a) Excitation (dark curve) and emission (light curve) spectra of each Mango. All Mangos have Δex max=510 nm and Δem max=535 nm. Color-coding is as follows: Black—Mango I, Blue—Mango II, Green—Mango III, Red—Mango IV.
Fluorescence data was gathered using a Varian Cary Eclipse Spectrophotometer unless otherwise stated. […] Fluorescence was measured at the maximum excitation and emission wavelengths of each complex (FIG. 13).

[5] = Formaldehyde resistance assay; assay type: physicochemical; conditions: in vitro, TO1-Biotin
Experimental: FIG. 15|Effect of formaldehyde on Mango fluorescence. […] In (b) RNA is incubated with the corresponding amounts of formaldehyde first for one hour, then TO1-Biotin is added. Data for each panel is normalized to RFU at the 0% formaldehyde, 0 min point.
RNA Mango aptamers were incubated with TO1-Biotin in WB buffer for at least one hour until equilibrium fluorescence was reached. […] Fluorescence was measured as a kinetic run at a rate of 2 readings per minute using a Varian Cary Eclipse Fluorescence Spectrophotometer, ex/em=510±2.5/535±5 nm.

[6] = Temperature dependent fluorescence and UV melting; assay type: physicochemical
Experimental: FIG. 11|Temperature-dependent fluorescent and UV absorbance spectroscopy of new Mango variants. Line plots of temperature-dependent spectroscopy for Mango I (data obtained from previous work)^1, Mango II, Mango III, and Mango IV. […] Starting at 90° C., temperature was ramped down at a rate of 1° C./min to 20° C. (darker shade) and returned to 90° C. at a rate of 1° C./min (lighter shade).
Temperature dependence measurements were started at 90° C. decreasing at a rate of 1° C./min until 20° C., then returned at 1° C./min until 90° C. was reached. […] Temperature dependence of fluorescence and absorbance were measured using a Varian Cary Eclipse Fluorescence Spectrophotometer at excitation and emission peaks and a Varian Cary 100 Bio UV-visible spectrophotometer monitoring at 260 nm.

With “Mango-II: minimal construct engineered from isolate R2-1; SEQ ID NO: 6902 GCGUACGAAGGAGAGGAGAGGAAGAGGAGAGUACGC (chemistry not given here)” the Kd [1] was 39 ± 10 mM, the “Hill Coefficients K^+” value ([1]; * estimated from initial rise of fluorescence) was 1.4 ± 0.2 and the “fluorescence in the presence of sodium ions” value [2] was “did not fluoresce appreciably”. The “Hill Coefficients Na^+” value ([2]; Na+ in place of K+, 25 nM RNA, 50 nM TO1-Biotin) was 0.8 ± 0.1, the “effect of high levels of Mg^2+ on fluorescence” value [3] was “significantly resistant” and the “quantum yield of the TO1-Biotin complex” value [4] was 0.21. For the same substance, the “brightness of the TO1-Biotin bound complex” value ([4]; TO1-Biotin complex) was 17,000 M^−1cm^−1, the “brighter than Mango-I” value ([4]; TO1-Biotin, FIG. 2b) was 1.5 fold and the resistance to formaldehyde [5] was “substantially resistant to formaldehyde; also recorded: remarkably formaldehyde resistant”. For the same substance, the thermostability [6] was “more thermostable than Mango-I”.
